Results taken from paper PMC12052742, “Engineering a newly identified alcohol dehydrogenase from Sphingobium Sp. for efficient utilization of nicotinamide cofactors biomimetics” (Bioresources and Bioprocessing, 2025).

Experiments:
Assay type in all cases: biochemical, Sphingobium sp. SYK-6
[1] = test system: SpADH2; assay: Preliminary evaluation of NCB usage in oxidation of syringyl alcohol (HPLC); details: preliminary assay: 1a 1 mM, NCB 10 mM, pH 7.0, 30℃, 0.1 mg/mL enzyme, 1 h
Protocol: Sphingobium sp. SYK-6 belongs to genus Sphingomonas, and a search in UniProtKB identified 19 ADHs from this strain, including 5 PQQ-dependent and the remaining NAD^+/NADP^+-dependent enzymes. Two sequences annotated as aryl-alcohol dehydrogenases (SLG_34580 and SLG_24930) (Table. S1) were selected for heterologous expression (Fig. S1) and named SpADH1 and SpADH2, respectively. Their ability to utilize NCBs was assessed by oxidation of syringyl alcohol (1a) to produce syringaldehyde (1b) (Fig. 1a).
Fig. 1 (a) Reaction scheme of SpADH2-catalyzed oxidation of syringyl alcohol. (b) Specific activity of SpADH2 toward four NCBs. The evaluation of NCBs usage by SpADH2 was carried out under following conditions: 50 mM PBS buffer (pH 7.0) and 30℃, with 1a (1 mM) as substrate and 4 typical NCBs (10 mM) as cofactor. A total of 0.1 mg/mL enzyme was added to a 200 µL reaction mixture, and was analyzed by HPLC after 1 h reaction
Reaction samples were analyzed using Agilent 1260 Infinity II LC system under reversed phase condition. Column: Agilent C18 column. Analytical conditions for 1a and 1b: mobile phase: 50% water: 50% acetonitrile. The retention time for standard product 1b was 3.27 min, under flow rate of 1 mL·min^− 1and temperature of 30°C (Fig. S4).

[2] = test system: SpADH2; assay: Cofactor spectrum of syringyl alcohol oxidation (HPLC specific activity), WT
Protocol: Fig. 2 Cofactor spectrum of syringyl alcohol oxidation catalyzed by SpADH2. The darkness of the background color for each cofactor stands for the activity of SpADH2 utilizing various cofactors. (a) NAD(P) ^+ and NMN^+ are shown in purple background. (b) tsNCBs are shown in cyan background. The evaluation of cofactor spectrum of SpADH2 was carried out under following conditions: 50 mM PBS buffer (pH 7.5) and 30℃, with 1a (5 mM) as substrate and different cofactors (7.5 mM) as cofactor. For NAD(P)^+ and NMN^+, 0.05 µg SpADH2 was added, and for tsNCBs, 5 µg SpADH2 was added. The results were analyzed by HPLC after 1 h reaction
Specific activity of SpADH2 in cofactor spectrum study was determined by HPLC analysis. PBS (pH 7.5) buffer was pre-heated at 30°C for 15 min. For NAD(P)^+ and NMN^+, 0.05 µg SpADH2 was added to PBS buffer (100 µL). For tsNCBs, 5 µg SpADH2 was added. A final concentration of 7.5 mM cofactor was added to the reaction mixture. Finally, a final concentration of 5 mM substrate was added to start the reaction. The reactions were conducted at 30°C.
One unit of enzyme activity is defined as the amount of enzyme required to form 1 µmol 1b per minute at pH 7.5 and 30°C. Same reaction without cofactor was used as a blank control.

[3] = test system: SpADH2 variant H43L/A290I; assay: Substrate kinetic assay, H43L/A290I
Protocol: (§1) Specific activity of SpADH2 in substrate spectrum study was measured spectrophotometrically. PBS (pH 7.5) buffer was pre-heated at 30°C for 15 min. For NAD^+, 0.05 µg SpADH2 was added to the PBS buffer (100 µL), and a final concentration of 2 mM NAD^+ was added. For tsNCBs cofactor p-BANA^+, 5 µg SpADH2 and a final concentration of 7.5 mM p-BANA^+ was added. The mixture was carried out in a 96-well microplate, and a final concentration of 5 mM substrate was added to start the reaction. The microplate was incubated in 30°C for 1 h. Florescent probes (2-[2-(1,4-dihydro-1-methyl-3-quinolinyl)ethenyl]-1,3,3-trimethyl-3H-indolium) in a final concentration of 0.2 mM (100 µL) was added (Scheme S1), and the microplate was placed in a microplate reader immediately for measurement under 537 nm (Fomin et al. [2016]).
(§2) Kinetic analysis of SpADH2 and its variants were carried out following Michaelis-Menten equation or Michaelis-Menten excess substrate inhibition equation. For of the substrate kinetic assays, concentrations of cofactors were fixed at 5 mM for NAD^+ and 7.5 mM for p-BANA^+. For cofactor kinetic assays, the concentration of 1a was fixed at 5 mM.
(§3) Specific activity was determined spectrophotometrically as above except that gradient 1a (0−20 mM) or cofactor (0−35 mM) concentrations were applied.
(§4) Cofactor specificity ratio (CSR) represents the ratio of catalytic efficiency of p-BANA^+ to NAD^+ for each enzyme, and relative specificity (RS) stands for the CSR ratio of variants to WT (King et al. [2020]).

[4] = test system: SpADH2 variant A290I; assay: Cofactor kinetic assay, A290I
Protocol: as §1, §2, §3, §4

[5] = test system: SpADH2 variant A47S; assay: Activity of variant in oxidation of syringyl alcohol with p-BANA^+ (Fig. 5), A47S; details: cofactor p-BANA^+, substrate syringyl alcohol
Protocol: (§5) In the first round of screening, saturation mutagenesis was constructed for six positions (W114, T177, G172, G316, A47, and R227). […] Therefore, in the second round of mutagenesis, six additional sites within the 5 Å range of the cofactor ribose (H43, V202, T265, V288, G289, and A290) were selected for saturation mutagenesis screening (Fig. 6c and Fig. S6). Three beneficial mutations were identified. […] Subsequently, combinatorial mutagenesis was performed, resulting in 11 double variants and 3 triple variants.
(§6) Fig. 5 Relative activity of SpADH2 and its variants in oxidation of syringyl alcohol when utilizing p-BANA^+ as cofactor
(§7) In preliminary screening by spectrophotometric analysis, PBS (pH 7.5) buffer (50 µL) in a 96-well plate was pre-warmed at 30°C for 15 min, and a final concentration of 5 mM p-BANA^+ and 1 mM substrate syringyl alcohol were added, and 50 µL of crude enzyme were add to each well to start the reaction, with WT as control. The reaction mixture was incubated at 30°C for 1 h, followed by addition of fluorescent probes in a final concentration of 0.2 mM, and was subjected to determination under 537 nm as described above.

[6] = test system: SpADH2 variant A290V; assay: Activity of variant in oxidation of syringyl alcohol with p-BANA^+ (Fig. 5), A290V; details: cofactor p-BANA^+, substrate syringyl alcohol
Protocol: as §5, §6, §7

[7] = substrate kinetics, cofactor = label
[8] = cofactor kinetics, cofactor = label

## NC(=O)c1ccc[n+](Cc2ccc(C(=O)O)cc2)c1 [p-BANA^+, para-3-carbamoyl-1-(4-carboxybenzyl)pyridin-1-ium]
[1]
  catalytic activity of SpADH2 with the NCB as cofactor: 1.62 U/g
[2]; 1a 5 mM, cofactor 7.5 mM, pH 7.5, 30℃, 5 µg SpADH2, 1 h
  activity of SpADH2 with the tsNCB as cofactor: 11.55 U/g
[2]; optimized conditions vs preliminary assay
  fold increasement of activity compared with preliminary assay: 7.1 fold
[3]; 1a varied, cofactor (= label) fixed: 5 mM NAD^+ or 7.5 mM p-BANA^+
  kcat: 6.8 ± 1.6 min^− 1
[3]; substrate kinetics
  Cofactor specificity ratio (catalytic efficiency of p-BANA^+ to NAD^+): 0.1026
[3]; [7]
  fold increase in kcat vs WT: 6 fold
  reduce in Km value vs WT: 30%
[3]; substrate kinetics, in text as fold improvement in CSR
  Relative specificity (CSR ratio of variant to WT): 6750
[4]; cofactor (= label) varied, 1a fixed at 5 mM
  kcat: 13 ± 2.5 min^− 1
[4]; cofactor (= label) varied, 1a fixed at 5 mM, pH 7.5, 30°C
  Km: 14 ± 3.8 mM
[4]; cofactor (= label) varied, 1a fixed at 5 mM, read-out: Ki (cofactor inhibition)
  Ki: 18 ± 5.8 mM
[4]; cofactor kinetics
  Cofactor specificity ratio (catalytic efficiency of p-BANA^+ to NAD^+): 2.96×10^-4
  Relative specificity (CSR ratio of variant to WT): 7.77
[4]; [8]
  fold higher catalytic efficiency (kcat/Km) than WT: 10 fold
  fold increase in kcat value vs WT: 7.9 fold
[5]
  fold higher activity than WT: 1.8 fold
[6]
  fold increase in activity vs WT: 3 fold
